Read-outs that look alike come from different tables or passages of the source.
What was measured:
[1] = molecular target: T1, PfCRT^3D7 (Plasmodium falciparum, UniProt Q8IBZ9); test: cell-based; format: cell-based; conditions: PfCRT3D7 oocytes, total [3H]CQ transport, normalised to the oocyte type control
Outline: (§1)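 PfCRT-expressing and control oocytes: ND96 pH 5.5 → 1.5 h at 27.5 °C → ice-cold ND96 wash → 10% SDS lysis → scintillation count.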

[2] = test system: non-expressing oocytes; format: cell-based, Xenopus laevis; conditions: non-expressing oocytes, total [3H]CQ transport, normalised to the oocyte type control
Outline: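 Oocytes (ten per treatment, ≥4 independent frogs/days) were preloaded by injecting VF-6 in 25 nL ND96 at pH 5.0, 5.5, 6.0 or 7.0, or Na^+-free choline buffer, then uptake run 1.5 h, 27.5 °C, ND96 pH 5.5 by default. Internal concentrations assumed ~400 nL oocyte volume.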

[3] = molecular target: T2, PfNT1 (Plasmodium falciparum, UniProt Q8IDM6); test: cell-based; format: cell-based; conditions: PfNT1 oocytes, total [3H]CQ transport, normalised to the oocyte type control
T2 construct: expressed in transfected cells; host or cells: Xenopus laevis oocytes (stage V-VI), cRNA-injected
T2 sequence (Q8IDM6 whole entry): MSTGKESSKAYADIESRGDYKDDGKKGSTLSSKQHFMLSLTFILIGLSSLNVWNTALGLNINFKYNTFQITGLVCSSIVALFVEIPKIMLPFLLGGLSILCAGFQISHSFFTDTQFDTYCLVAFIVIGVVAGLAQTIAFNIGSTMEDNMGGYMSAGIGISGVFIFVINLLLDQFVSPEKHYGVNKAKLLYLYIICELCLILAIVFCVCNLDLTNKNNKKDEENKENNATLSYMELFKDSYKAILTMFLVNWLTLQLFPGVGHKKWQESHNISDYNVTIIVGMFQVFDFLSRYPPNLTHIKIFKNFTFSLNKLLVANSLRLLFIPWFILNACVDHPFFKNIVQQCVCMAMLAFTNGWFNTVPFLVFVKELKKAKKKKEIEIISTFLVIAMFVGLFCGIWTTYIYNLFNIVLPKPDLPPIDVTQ
Outline: (§2)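 Transport measured in Xenopus oocytes expressing the transporters, 1.5 h at 27.5 °C in ND96 pH 5.5 unless noted. For trans-stimulation, VF-6 injected in 25 nL ND96 at pH 5.0–7.0 or Na^+-free (choline) buffer; intracellular levels based on ~400 nL oocyte volume. Ten oocytes per treatment, ≥4 experiments.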

[4] = molecular target: T3, PfCRT^Dd2 (Plasmodium falciparum, UniProt Q9N623, A220S/I356T/K76T/M74I/N326S/N75E/Q271E/R371I); test: cell-based; format: cell-based; conditions: for Uptake of [3H]CQ (% PfCRTDd2 control), trans-stimulation / PfCRT-mediated [3H]CQ transport, trans-stimulation (% PfCRTDd2 control): PfCRTDd2 oocytes; for Uptake of [3H]CQ (% PfCRTDd2 control), trans-stimulation: total [3H]CQ transport, normalised to the oocyte type control; for PfCRT-mediated [3H]CQ transport, trans-stimulation (% PfCRTDd2 control): normalised to oocyte type control; for [3H]CQ transport (% PfCRTDd2 control), trans-stimulation, PfCRTDd2: PfCRT-mediated component (background subtracted), mean ± SEM, SEM
T3 sequence (Q9N623 whole entry A220S/I356T/K76T/M74I/N326S/N75E/Q271E/R371I): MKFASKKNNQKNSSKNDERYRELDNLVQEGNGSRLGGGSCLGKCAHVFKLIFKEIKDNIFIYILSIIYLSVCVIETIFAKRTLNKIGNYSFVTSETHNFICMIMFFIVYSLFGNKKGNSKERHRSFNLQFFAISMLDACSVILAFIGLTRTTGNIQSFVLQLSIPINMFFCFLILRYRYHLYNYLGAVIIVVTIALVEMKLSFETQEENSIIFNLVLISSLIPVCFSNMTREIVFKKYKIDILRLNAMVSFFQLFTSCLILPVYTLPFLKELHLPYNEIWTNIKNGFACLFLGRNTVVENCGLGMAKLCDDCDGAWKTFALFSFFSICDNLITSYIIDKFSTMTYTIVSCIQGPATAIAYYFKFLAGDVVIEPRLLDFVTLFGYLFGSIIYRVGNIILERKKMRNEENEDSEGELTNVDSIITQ
Outline: as §2

[5] = molecular target: T1, PfCRT^3D7; test: cell-based; format: cell-based; conditions: PfCRT3D7 oocytes; for Uptake of [3H]CQ (% PfCRT3D7 control), trans-stimulation: total [3H]CQ transport, normalised to the oocyte type control; for PfCRT-mediated [3H]CQ transport, trans-stimulation (% PfCRT3D7 control): normalised to oocyte type control
Outline: as §2

[6] = molecular target: T4, PfCRT^Ecu1110 (Plasmodium falciparum, UniProt Q9N623, A220S/I356L/K76T/N326D); test: cell-based; format: cell-based; conditions: for Uptake of [3H]CQ (% PfCRTEcu1110 control), trans-stimulation / PfCRT-mediated [3H]CQ transport, trans-stimulation (% PfCRTEcu1110 control): PfCRTEcu1110 oocytes; for Uptake of [3H]CQ (% PfCRTEcu1110 control), trans-stimulation: total [3H]CQ transport, normalised to the oocyte type control; for PfCRT-mediated [3H]CQ transport, trans-stimulation (% PfCRTEcu1110 control): normalised to oocyte type control; for [3H]CQ transport (% PfCRTDd2 control), trans-stimulation, PfCRTEcu1110: PfCRT-mediated component (background subtracted), sheet title says normalised to PfCRTDd2 control, mean ± SEM, SEM
T4 sequence (Q9N623 whole entry A220S/I356L/K76T/N326D): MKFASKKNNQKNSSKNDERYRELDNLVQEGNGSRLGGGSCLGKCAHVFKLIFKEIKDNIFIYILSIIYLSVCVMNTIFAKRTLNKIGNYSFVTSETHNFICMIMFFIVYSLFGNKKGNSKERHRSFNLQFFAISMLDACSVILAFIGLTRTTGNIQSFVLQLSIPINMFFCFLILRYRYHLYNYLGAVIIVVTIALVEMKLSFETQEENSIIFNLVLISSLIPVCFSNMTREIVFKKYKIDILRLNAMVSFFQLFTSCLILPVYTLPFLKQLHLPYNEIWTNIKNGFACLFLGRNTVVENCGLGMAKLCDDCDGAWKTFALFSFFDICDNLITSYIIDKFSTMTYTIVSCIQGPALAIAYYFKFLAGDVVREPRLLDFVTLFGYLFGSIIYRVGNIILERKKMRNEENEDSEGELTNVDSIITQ
Outline: as §2

[7] = molecular target: T3, PfCRT^Dd2; test: [3H]CQ uptake into Xenopus oocytes, cis-inhibition by unlabelled solute; format: cell-based; conditions: PfCRTDd2 oocytes, background [3H]CQ accumulation subtracted, normalised to oocyte type control
Outline: as §1

[8] = molecular target: T4, PfCRT^Ecu1110; test: as above; format: cell-based; conditions: for Uptake of [3H]CQ (% PfCRTEcu1110 control), cis-inhibition / PfCRT-mediated [3H]CQ transport, cis-inhibition (% PfCRTEcu1110 control): PfCRTEcu1110 oocytes; for Uptake of [3H]CQ (% PfCRTEcu1110 control), cis-inhibition: total [3H]CQ transport, normalised to the oocyte type control; for PfCRT-mediated [3H]CQ transport, cis-inhibition (% PfCRTEcu1110 control): background [3H]CQ accumulation subtracted, normalised to oocyte type control; for [3H]CQ transport (% PfCRTEcu1110 control), cis-inhibition, PfCRTEcu1110: PfCRT-mediated component (background subtracted), sheet title says normalised to PfCRTDd2 control, mean ± SEM, SEM
Outline: as §1

[9] = test system: non-expressing oocytes; test: cells; format: cell-based, Xenopus laevis; conditions: non-expressing oocytes, total [3H]CQ transport, normalised to the oocyte type control
Outline: as §1

[10] = [test solute]i = 45 mM (30 mM for some solutes due to solubility)
[11] = [test solute]i = 5 mM (intracellular)
[12] = [test solute]i = 45 mM (intracellular; 30 mM for some solutes due to solubility)
[13] = [test solute]i = 5 mM (injected)

T1 sequence (Q8IBZ9 59-398): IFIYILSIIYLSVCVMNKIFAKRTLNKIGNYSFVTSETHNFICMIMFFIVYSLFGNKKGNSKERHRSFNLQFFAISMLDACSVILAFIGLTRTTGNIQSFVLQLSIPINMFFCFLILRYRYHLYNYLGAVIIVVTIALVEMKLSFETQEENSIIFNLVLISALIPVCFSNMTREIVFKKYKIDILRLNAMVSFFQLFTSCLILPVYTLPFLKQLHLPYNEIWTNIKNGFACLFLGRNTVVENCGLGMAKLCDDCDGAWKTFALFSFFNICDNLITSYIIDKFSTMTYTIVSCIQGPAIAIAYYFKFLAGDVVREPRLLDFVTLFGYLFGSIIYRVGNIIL

PEEK [PK-4]
Uptake of [3H]CQ (% PfCRT3D7 control), cis-inhibition ([1]; [test solute] = 0.5 mM): 102 ± 4.4 % PfCRT3D7 control | Uptake of [3H]CQ (% PfCRT3D7 control), cis-inhibition ([1]; [test solute] = 1 mM): 99 ± 4.7 % PfCRT3D7 control | Uptake of [3H]CQ (% PfCRT3D7 control), cis-inhibition ([1]; [test solute] = 2 mM): 98 ± 3.7 % PfCRT3D7 control | Uptake of [3H]CQ (% non-expressing oocyte control), trans-stimulation ([2]; [test solute]i = 5 mM): 100 ± 1.8 % non-expressing oocyte control | Uptake of [3H]CQ (% non-expressing oocyte control), trans-stimulation [2, 10]: 99 ± 1.5 % non-expressing oocyte control | Uptake of [3H]CQ (% PfNT1 control), trans-stimulation ([3]; [test solute]i = 5 mM): 99 ± 2.1 % PfNT1 control | Uptake of [3H]CQ (% PfNT1 control), trans-stimulation [3, 10]: 100 ± 2.7 % PfNT1 control | Uptake of [3H]CQ (% PfCRTDd2 control), trans-stimulation ([4]; [test solute]i = 5 mM): 97 ± 2.1 % PfCRTDd2 control | Uptake of [3H]CQ (% PfCRTDd2 control), trans-stimulation [4, 10]: 97 ± 3.2 % PfCRTDd2 control | PfCRT-mediated [3H]CQ transport, trans-stimulation (% PfCRTDd2 control) [4, 11]: 95 ± 4.4 % PfCRTDd2 control | PfCRT-mediated [3H]CQ transport, trans-stimulation (% PfCRTDd2 control) [4, 12]: 100 ± 4.3 % PfCRTDd2 control | [3H]CQ transport (% PfCRTDd2 control), trans-stimulation, PfCRTDd2 [4, 13]: 95 ± 4.4 % PfCRTDd2 control | [3H]CQ transport (% PfCRTDd2 control), trans-stimulation, PfCRTDd2 [4, 10]: 100 ± 4.3 % PfCRTDd2 control | Uptake of [3H]CQ (% PfCRT3D7 control), trans-stimulation ([5]; [test solute]i = 5 mM): 99 ± 2.1 % PfCRT3D7 control | Uptake of [3H]CQ (% PfCRT3D7 control), trans-stimulation [5, 10]: 100 ± 1.7 % PfCRT3D7 control | PfCRT-mediated [3H]CQ transport, trans-stimulation (% PfCRT3D7 control) [5, 11]: 97 ± 3.8 % PfCRT3D7 control | PfCRT-mediated [3H]CQ transport, trans-stimulation (% PfCRT3D7 control) [5, 12]: 98 ± 3.2 % PfCRT3D7 control | Uptake of [3H]CQ (% PfCRTEcu1110 control), trans-stimulation ([6]; [test solute]i = 5 mM): 99 ± 1.4 % PfCRTEcu1110 control | Uptake of [3H]CQ (% PfCRTEcu1110 control), trans-stimulation [6, 10]: 97 ± 2.4 % PfCRTEcu1110 control | PfCRT-mediated [3H]CQ transport, trans-stimulation (% PfCRTEcu1110 control) [6, 11]: 97 ± 2.7 % PfCRTEcu1110 control | PfCRT-mediated [3H]CQ transport, trans-stimulation (% PfCRTEcu1110 control) [6, 12]: 95 ± 3.5 % PfCRTEcu1110 control | [3H]CQ transport (% PfCRTDd2 control), trans-stimulation, PfCRTEcu1110 [6, 13]: 29 ± 1.1 % PfCRTEcu1110 control | [3H]CQ transport (% PfCRTDd2 control), trans-stimulation, PfCRTEcu1110 [6, 10]: 29 ± 1.2 % PfCRTEcu1110 control | PfCRT-mediated [3H]CQ transport, cis-inhibition (% PfCRTDd2 control) ([7]; [test solute] = 0.5 mM): 57 ± 2.0 % PfCRTDd2 control | PfCRT-mediated [3H]CQ transport, cis-inhibition (% PfCRTDd2 control) ([7]; [test solute] = 1 mM): 44 ± 2.1 % PfCRTDd2 control | PfCRT-mediated [3H]CQ transport, cis-inhibition (% PfCRTDd2 control) ([7]; [test solute] = 2 mM): 37 ± 2.2 % PfCRTDd2 control | Uptake of [3H]CQ (% PfCRTEcu1110 control), cis-inhibition ([8]; [test solute] = 0.5 mM): 51 ± 3.2 % PfCRTEcu1110 control | Uptake of [3H]CQ (% PfCRTEcu1110 control), cis-inhibition ([8]; [test solute] = 1 mM): 47 ± 3.2 % PfCRTEcu1110 control | Uptake of [3H]CQ (% PfCRTEcu1110 control), cis-inhibition ([8]; [test solute] = 2 mM): 33 ± 2.6 % PfCRTEcu1110 control | PfCRT-mediated [3H]CQ transport, cis-inhibition (% PfCRTEcu1110 control) ([8]; [test solute] = 0.5 mM): 46 ± 1.6 % PfCRTEcu1110 control | PfCRT-mediated [3H]CQ transport, cis-inhibition (% PfCRTEcu1110 control) ([8]; [test solute] = 1 mM): 42 ± 4.2 % PfCRTEcu1110 control | PfCRT-mediated [3H]CQ transport, cis-inhibition (% PfCRTEcu1110 control) ([8]; [test solute] = 2 mM): 27 ± 1.9 % PfCRTEcu1110 control | [3H]CQ transport (% PfCRTEcu1110 control), cis-inhibition, PfCRTEcu1110 ([8]; [test solute] = 0.5 mM): 14 ± 0.2 % PfCRTEcu1110 control | [3H]CQ transport (% PfCRTEcu1110 control), cis-inhibition, PfCRTEcu1110 ([8]; [test solute] = 1 mM): 13 ± 0.4 % PfCRTEcu1110 control | [3H]CQ transport (% PfCRTEcu1110 control), cis-inhibition, PfCRTEcu1110 ([8]; [test solute] = 2 mM): 9.0 ± 0.04 % PfCRTEcu1110 control | Uptake of [3H]CQ (% non-expressing oocyte control), cis-inhibition ([9]; [test solute] = 0.5 mM): 100 ± 5.8 % non-expressing oocyte control | Uptake of [3H]CQ (% non-expressing oocyte control), cis-inhibition ([9]; [test solute] = 1 mM): 99 ± 5.3 % non-expressing oocyte control

From PMC7413254 (Nature Communications, 2020)
